Assay results as given in US6649648B1, “Therapeutic methods and compositions involving isoflavones” (Novogen Research Pty Limited, priority 1996, dated 2003).

Key:
rat aortic rings = assay: Vascular reactivity, rat aortic rings with noradrenaline; type: cell-based; settings: rat aortic ring, vasoconstrictor noradrenaline
Method: Vascular reactivity studies using rat aortic rings is generally regarded as directly predictive of biological effects of candidate compounds in the treatment of the above conditions (Karapapanis, S. et al (1994) Heptology, 20, 6, 1516-1521). The inhibitory effect on restrictor responses in the aortic ring is measured in the presence of the vasoconstrictor noradrenaline according to the procedure of Karapapanis (supra).

breast cancer = assay: Prevention of breast cancer in high risk women, transdermal patch; type: in vivo, human; settings: same manner and amount, six month trial period
Method: This study investigated whether compounds 1 through 19 administered transdermally each day through a skin patch could be used to prevent breast cancer or metastatic cancers following cancer therapy. Patches were prepared that contained a lipophylic carrier cream which is readily absorbed through the skin. The cream comprised a glycerol cold cream which contained glycerin and peanut oil. A selected active compound from any one of compounds of the formulae 1 to 19 is mixed with the lipophylic cream such that each patch comprises 10 mg to 100 mg of active compound. The patch is applied to the skin each day and rapid absorption occurs. After two hours the patch is removed. Alternatively, the patch may be left on for a greater part of each day.

bowel cancer = assay: Patients with advanced or terminal bowel cancer; type: in vivo, human; settings: intravenous infusion 2 g daily, three weeks, advanced bowel cancer
Method: A patient suffering from advanced bowel cancer is treated daily for three weeks with an intravenous infusion of 2 g of the compound of the formula 14 dissolved in sterile saline. […] Progression of the tumour is also arrested over the treatment period.
A second patient suffering from the same condition is treated in the same manner as the above patient with the exception that the 2 g dose of the active compound is administered by way of bolus injection.
In a further series of experiments a group of patients suffering from terminal bowel cancer were treated by bolus daily injections (intravenous or intramuscular) of 2 g of a compound selected from one of the formulae 1 to 19. Over the test period there is shown to be a marked reduction in pain and discomfort. Tumour markers (carcino-embryonic antigen (CEA)) are reduced as evidenced by blood analysis and tumour spread decreased.

K562 = assay: Anti-cancer screening assay, inhibition of cell proliferation; type: cell-based, human; settings: cell line printed K563 at the result
Method: (§1) The activity of compounds of the present invention in inhibiting the growth of hormone responsive cancer cells were tested using the well characterised human responsive cancer cell lines K562 and HL60. The anti-cancer screening assay measured inhibition of cell proliferation which results in terminal differential cell death.

HL60 = assay: as above; type: cell-based, human
Method: as §1

LDL receptor = assay: LDL Receptor Studies, LDL uptake into liver cells; type: cell-based
Description: 4. LDL Receptor Studies—Treatment of atherosclerosis, myocardial infarction, stroke and hypertension. This will establish that compounds which up-regulate the LDL receptor, lead to decreased circulating LDL, and therefore reduces the prospect of atherosclerosis, myocardial infarction, stroke and hypertension. Using an assay according to Stephan Z. F. and Yurachek, E. C. (1993) J. Lipid. Res. 34, 325-330, it is shown that the compounds of the formulae 1 to 19 are effective in increasing LDL uptake into liver cells, this being directly predictive of decrease of circulating LDL in the human blood stream.

LDL = LDL Antioxidation Test; type: biochemical; settings: for Lag Times / % Increase Over Control: LDL 0.25 mg/ml, 10 μm active compound, 4 μm Cu++; for Lag Times: control 20 min; for antioxidant potency (in words): conclusion from the LDL antioxidation test; for % Increase Over Control: lag time
Method: 1. LDL Antioxidation Test—This test measures the ability of a compound to directly scavenge free radicals or to chelate transition metals. […] These tests were carried out according to the procedure of Esterbauer et al Free. Rad. Res. Coms. (1989) 6, 67-75. Briefly, LDL (0.25 mg/ml) is incubated with 10 μm active compound in the presence of 4 μm Cu^++, and LDL was assayed for oxidation by HPLC analysis.

human LDL = assay: Redox Test (LDL lipid oxidation in the presence of vitamin E); type: biochemical; settings: for Redox Index: human LDL, 20% consumption of endogenous α-tocopherol, BHT 10 μm, lower value = higher activity
Description: 2. Redox Test—This test measures the ability of a compound to prevent LDL lipid oxidation in the presence of vitamin E. The test is a physiological test, vitamin E (α-tocopherol) is present with LDL in the blood stream, and LDL oxidation is believed to be one of the major factors of the development of atherosclerosis. The lower values, the higher the redox activity. […] The test indirectly assesses the ability of a compound to synergise with α-tocopherol in human LDL undergoing mild and chemically controlled oxidation. Oxidation is measured by the accumulation of cholesterylester hydroperoxides at a time point corresponding to 20% consumption of endogenous α-tocopherol. Butylated hydroxytoluene (BHT 10 μm) is used as a positive control. The redox index is measured by the relative extent of oxidation of LDL in the presence of the sample divided by the relative extent of oxidation in the absence of the test compounds. […] Tests were carried out according to Bowry, V. W. et al (1995) J. Bio. Chem. 270 (11) 5756-5763.

O=C1c2c(O)cc(O)cc2OCC1c1ccc(O)cc1 (stereo not shown) [dihydrogenestein, Dihydrogenistein]
inhibitory effect on vaso-constrictor responses to noradrenaline (rat aortic rings): potent inhibitory effects on responses to noradrenaline

CC(C(=O)c1c(O)cc(O)cc1O)c1ccc(O)cc1 (stereo not shown) [Compound 14, 6-hydroxy-O-demethylangolensin]
evidence of breast cancer or other metastatic cancer (breast cancer): same beneficial results
cancer markers (bowel cancer): reduction
pain and discomfort (bowel cancer): significantly reduced
progression of the tumour (bowel cancer): arrested

Oc1ccc([C@H]2COc3cc(O)ccc3C2)cc1 [equol]
inhibitory effect on vaso-constrictor responses to noradrenaline (rat aortic rings): potent inhibitory effects on responses to noradrenaline
inhibition of growth of cell line (K562): potent inhibitors of growth
inhibition of growth of cell line (HL60): potent inhibitors of growth
increase of LDL uptake into liver cells (LDL receptor): particularly active

Oc1ccc(C2=Cc3ccc(O)cc3OC2)cc1 [Dehydroequol]
Lag Times (LDL): >140 min
antioxidant potency (in words) (LDL): extremely potent antixoidants
% Increase Over Control (LDL): >600%
synergistic interaction with vitamin E to prevent oxidation (human LDL; Redox Test): interacts synergistically with vitamin E to prevent oxidation
Redox Index (human LDL): 4.5±1.2

C=C(C(=O)c1ccc(O)cc1O)c1ccc(O)cc1 [Compound 11, 2-dehydro-O-demethylangolensin]
evidence of breast cancer or other metastatic cancer (breast cancer): same beneficial results

Cc1cc(C(C)(C)C)c(O)c(C(C)(C)C)c1 [BHT, Butylated hydroxytoluene, reference compound]
Redox Index (human LDL): 6.3

Tetrahydrodaidzein
inhibitory effect on vaso-constrictor responses to noradrenaline (rat aortic rings): potent inhibitory effects on responses to noradrenaline
Lag Times (LDL): >140 min
antioxidant potency (in words) (LDL): extremely potent antixoidants
% Increase Over Control (LDL): >600%
inhibition of growth of cell line (HL60): strong inhibition

O=C1c2ccc(O)cc2OCC1c1ccc(O)cc1 (stereo not shown) [Dihydrodaidzein, dihydrodaidzein]
inhibitory effect on vaso-constrictor responses to noradrenaline (rat aortic rings): potent inhibitory effects on responses to noradrenaline
